Experimental findings from US20220073496A1, “NOVEL QUINOLINE DERIVATIVE INHIBITOR” (Nanjing Transthera Biosciences Co., Ltd., priority 2018, published 2022) are described below.

Data set [1] is described as follows: Stability in liver microsome of mice. In kind it is in vitro ADME. The conditions noted are these: liver microsomes; Mouse liver microsome 0.5 mg protein/mL, compound 1 μM, 37° C. In short, it runs like this: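 Compounds at 10 μM working solution (0.1% DMSO in reaction) incubated at 37° C. with liver microsomes plus β-NADPH. Samples taken at 0, 5, 10, 20, 30 and 60 min, with a no-NADPH control at 0 and 60 min, and analysed by LC/MS/MS. t1/2 and Cl derived from first-order decay, with Vd = 1/microsomal protein content.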
In general terms: Liver microsomes are a subcellular fraction often used to study metabolism.

The nature of a further data set: Rat PK evaluation. The conditions noted are these: SD rats; for Vz_obs iv (apparent distribution volume) / bioavailability / AUC(0-t) / clearance / half-life: n = 3; for bioavailability / AUC(0-t) / clearance / half-life / Tmax: rat, plasma; for bioavailability: read-out: F % (absolute bioavailability); for clearance: read-out: Cl_obs iv (clearance rate) (converted); for Tmax: n = 3, median, read-out: Tmax po (time to peak plasma concentration). In kind it is in vivo. As to the method: Assay 2: Rat PK Evaluation for the Compounds of the Present Invention
Animal Administration and Sample Collection:
The test compounds 14, 15, 16, 20, 29, 30, 31, 32, 33, 34, 36, 37, 47 and 48 were dissolved in 5% DMSO+20% (30% solutol)+75% saline to prepare the compound solutions. Each of the compound solutions was intragastrically administered to SD rats at a dose of 5.0 mg/kg. The time points of blood collection were: 15 minutes, 30 minutes, 1 hour, 2 hours, 4 hours, 6 hours, 8 hours, 24 hours, 30 hours, and 48 hours.
The test compounds 38, 39, 40 and 41 were dissolved in 5% NMP+5% Tween-80+90% saline to prepare the compound solutions. Each of the compound solutions was intragastrically administered to SD rats at a dose of 5.0 mg/kg. The time points of blood collection were: 15 minutes, 30 minutes, 1 hour, 2 hours. 4 hours, 6 hours, 8 hours, 24 hours, 30 hours, and 48 hours.
The test compounds 14, 15, 16, 20, 29, 30, 31, 32, 33, 34, 36, 37, 47 and 48 were dissolved in 5% DMSO+20% (30% solutol)+75% saline to prepare the compound solutions. Each of the compound solutions was administered by intravenous bolus injection to SD rats at a dose of 1 mg/kg. The time points of blood collection were: 5 minutes, 15 minutes, 30 minutes, 1 hour, 2 hours, 4 hours, 6 hours, 8 hours, 24 hours, and 48 hours.
The test compounds 38, 39, 40 and 41 were dissolved in 5% NMP+5% Tween-80+90% saline to prepare the compound solutions. Each of the compound solutions was administered by intravenous bolus injection to SD rats at a dose of 1 mg/kg. The time points of blood collection were: 5 minutes, 15 minutes, 30 minutes, 1 hour, 2 hours, 4 hours, 6 hours, 8 hours, 24 hours, and 48 hours.
The animal was fixed. The tail was heated in a water bath pot 10 minutes before each time point. About 100 μL of blood was collected through the tail vein. The blood was collected and placed in an anti-coagulation tube containing EDTA-K2. The blood sample was centrifuged at 8000 rpm for 6 minutes at 4° C. to obtain a plasma sample. The plasma was prepared within 30 minutes after the blood collection. The plasma was stored in a −80° C. refrigerator before testing.
The sample to be tested was taken out from the −80° C. refrigerator, naturally melted at room temperature and vortexed for 5 minutes. 20 μL of plasma sample was accurately pipetted into a 1.5 mL centrifuge tube. 200 μL of an internal standard working solution (a solution of tolbutamide in methanol) having a concentration of 100 ng/mL was added and mixed well. The mixture was vortexed for 5 minutes, and centrifuged at 12000 rpm for 5 minutes. 50 μL of the supernatant was accurately pipetted into a 96-well plate pre-filled with 150 μL/well of water. The plate was vortexed for 5 minutes and mixed well, and then the LC-MS/MS determination and analysis were performed.
The concentration of the test substance was output using Analyst 1.6.3 from AB Company. Parameters such as mean, standard deviation, and coefficient of variation were calculated with Microsoft Excel (direct outputs from Analyst 1.6.3 were not calculated), and the PK parameters were calculated using Pharsight Phoenix 6.1 software NCA (Tmax was the median).

[2] abbreviates: IV 1 mg/kg, read-out: AUClast iv (area under the drug-time curve from 0 to 48 hours).
The mark [3] stands for this setting: IV 1 mg/kg, read-out: tz1/2 iv (terminal elimination half-life) (converted).
The mark [4] stands for this setting: PO 5 mg/kg, read-out: AUClast po (area under the drug-time curve from 0 to 48 hours).
The mark [5] stands for this setting: PO 5 mg/kg, read-out: tz1/2 po (terminal elimination half-life) (converted).

Like-named read-outs stand apart in the source and are kept apart here.

As for `COc1cc2nccc(Oc3ncc(NC(=O)c4cn(C(C)C)nc(-c5ccc(F)cc5)c4=O)cn3)c2cc1OC` [Compound 40, N-(2-((6,7-dimethoxyquinolin-4-yl)oxy)pyrimidine-5-yl)-6-(4-fluorophenyl)-2-isopropyl-5-oxo-2,5-dihydropyridazine-4-carboxamide], the half-life at 1 μM in data set [1] is 533 min. In addition, in data set [1], the microsomal CLint – broadly, a measure of how fast metabolising enzymes remove a compound, apart from limits set by blood flow – at 1 μM was 2.6 µL/min/mg. The “Vz_obs iv (apparent distribution volume)” value in “Rat PK evaluation” (IV 1 mg/kg) is recorded as 1.84 L/kg. The bioavailability (in general, dose-corrected exposure relative to a reference, in per cent) in the data set “Rat PK evaluation” (IV 1 mg/kg, PO 5 mg/kg) is 63.4%. Also, the AUC(0-t) in “Rat PK evaluation” (setting [2]) amounted to 7270 ng·h/mL; in “Rat PK evaluation” (setting [4]), 23000 ng·h/mL. For the same compound, the clearance (usually the rate of elimination divided by the concentration) in “Rat PK evaluation” (IV 1 mg/kg) was 2.33 mL/min/kg. For the same compound, the half-life is 551 min in the data set “Rat PK evaluation” (setting [3]) and 521 min in the data set “Rat PK evaluation” (setting [5]). In “Rat PK evaluation” (PO 5 mg/kg), the Tmax worked out at 4 h.

Regarding `COc1cc2nccc(Oc3cnc(NC(=O)c4cn(C(C)C)nc(-c5ccc(F)cc5)c4=O)nc3)c2cc1OC` [Compound 39, N-(5-((6,7-dimethoxyquinolin-4-yl)oxy)pyrimidine-2-yl)-6-(4-fluorophenyl)-2-isopropyl-5-oxo-2,5-dihydropyridazine-4-carboxamide], in data set [1], the half-life at 1 μM was determined as 3460 min and the microsomal CLint at 1 μM is 4 µL/min/mg. Moreover, in the data set “Rat PK evaluation” (IV 1 mg/kg), the “Vz_obs iv (apparent distribution volume)” value worked out at 1.21 L/kg and the clearance was 2.5 mL/min/kg. Further, in the data set “Rat PK evaluation” (IV 1 mg/kg, PO 5 mg/kg), the bioavailability is 90.2%. Moreover, the AUC(0-t) in “Rat PK evaluation” (setting [2]) came out at 6920 ng·h/mL. In addition, the half-life in “Rat PK evaluation” (setting [3]) is 353 min. For the same compound, the Tmax in “Rat PK evaluation” (PO 5 mg/kg) amounted to 2 h. Moreover, the AUC(0-t) in “Rat PK evaluation” (setting [4]) came out at 32400 ng·h/mL. Moreover, the half-life in the data set “Rat PK evaluation” (setting [5]) is 340 min.

On to `COc1cc2nccc(Oc3ccc(NC(=O)c4cn(C(C)C)cc(-c5ccc(F)cc5)c4=O)nc3)c2cc1OC` [Compound 14, N-(5-((6,7-dimethoxyquinolin-4-yl)oxy)pyridin-2-yl)-5-(4-fluorophenyl)-1-isopropyl-4-oxo-1,4-dihydropyridin-3-carboxamide], for which the half-life at 1 μM in data set [1] worked out at 187 min. In data set [1], this compound registered a microsomal CLint at 1 μM of 7.4 µL/min/mg. Moreover, the “Vz_obs iv (apparent distribution volume)” value in the data set “Rat PK evaluation” (IV 1 mg/kg) was 0.25 L/kg. In the data set “Rat PK evaluation” (IV 1 mg/kg, PO 5 mg/kg), the bioavailability is 63.2%. Besides, the AUC(0-t) in the data set “Rat PK evaluation” (setting [2]) worked out at 34900 ng·h/mL; in the data set “Rat PK evaluation” (setting [4]), 110000 ng·h/mL. The clearance in “Rat PK evaluation” (IV 1 mg/kg) was 0.45 mL/min/kg. Further, the half-life in the data set “Rat PK evaluation” (setting [3]) is 378 min; in “Rat PK evaluation” (setting [5]), 726 min. Moreover, the Tmax in “Rat PK evaluation” (PO 5 mg/kg) came to 2 h.
